# Experimental data from US5006527A, “Pharmacologically active N-(4-piperidinyl) bicyclic condensed 2-imidazolamine derivatives” (Janssen Pharmaceutica N.V., priority 1989, dated 1991).
# Test system: compound 48/80-induced lethality
# Assay: Protection of rats from compound 48/80-induced lethality
# Type: in vivo, rat (male, inbred Wistar strain)
# Settings: Rattus norvegicus; test compound subcutaneously or orally (route not specified per compound); compound 48/80 0.5 mg/kg i.v. one hour after treatment; survival after 4 hours; protection of 50% of animals; read-out: compound 48/80 lethality test in rate-ED50
# Protocol: Protection of rats from compound 48/80-induced lethality
# The protection from compound 48/80-induced lethal circulatory collapse appears to be a simple way of evaluating quantitatively the antihistaminic activity of test compounds. Male rats of an inbred Wistar strain, weighting 240-260 g were used in the experiment. After overnight starvation the rats were transferred to conditioned laboratories (temp. =21±1° C., relative humidity =65±5%).
# The rats were treated subcutaneously or orally with a test compound or with the solvent (NaCl solution, 0.9%). One hour after treatment there was injected intravenously compound 48/80, freshly dissolved in water, at a dose of 0.5 mg/kg (0.2 ml/100 g of body weight). In control experiments, wherein 250 solvent-treated animals were injected with the standard dose of compound 48/80, not more than 2.8% of the animals survived after 4 hours. Survival after 4 hours is therefore considered to be a safe criterion of a protective effect of drug administration. Said ED50 -values are the values in mg/kg body weight at which the tested compounds protect 50% of the tested animals against compound 48/80-inducedlethality.
row,SMILES,ED50 [mg/kg]
1,Cc1ccc(Cn2c(NC3CCN(C)CC3)nc3cccnc32)o1 [Compound 1],0.005
2,"CCN1CCC(Nc2nc3cccnc3n2Cc2ccc(C)o2)CC1.O=C(O)/C=C/C(=O)O.O=C(O)/C=C/C(=O)O [Compound 4, N-(1-ethyl-4-piperidinyl)-3-[(5-methyl-2-furanyl)methyl]-3H-imidazo[4,5-b]-pyridin-2-amine (E)-2-butenedioate(1:2)]",0.0025
3,"C=CCN1CCC(Nc2nc3cccnc3n2Cc2ccc(C)o2)CC1.O=C(O)/C=C/C(=O)O.O=C(O)/C=C/C(=O)O [Compound 5, 3-[(5-methyl-2-furanyl)methyl]-N-[1-(2-propenyl)-4-piperidinyl]-3H-imidazo-[4,5-b]pyridin-2-amine (E)-2-butenedioate(1:2)]",0.005
4,Cc1ccc(Cn2c(NC3CCN(C/C=C/c4ccccc4)CC3)nc3cccnc32)o1 [Compound 6],0.04
5,CCOCCN1CCC(Nc2nc3cccnc3n2Cc2ccc(C)o2)CC1 [Compound 7],0.02
6,Cc1ccc(Cn2c(NC3CCN(CCCOc4ccccc4)CC3)nc3cccnc32)o1 [Compound 8],0.04
7,Cc1ccc(Cn2c(NC3CCN(CCn4c(=O)[nH]c5ccccc54)CC3)nc3cccnc32)o1 [Compound 9],0.02
8,CCn1nnn(CCN2CCC(Nc3nc4cccnc4n3Cc3ccc(C)o3)CC2)c1=O [Compound 10],0.04
9,CCN1CCC(Nc2nc3ccccc3n2Cc2ccc(C)o2)CC1 [Compound 11],0.01
10,COc1ccc(CCN2CCC(Nc3nc4ccccc4n3Cc3ccc(C)o3)CC2)cc1 [Compound 13],0.04
11,Cc1ccc(Cn2c(NC3CCN(CCc4cccs4)CC3)nc3cccnc32)o1 [Compound 15],0.04
12,CC(=O)CCCN1CCC(Nc2nc3cccnc3n2Cc2ccc(C)o2)CC1 [Compound 18],0.01
13,"CCn1nnn(CCN2CCC(Nc3nc4ccccc4n3Cc3ccc(C)o3)CC2)c1=O.O=C(O)C(=O)O.O=C(O)C(=O)O [Compound 22, 1-ethyl-1,4-dihydro-4-[2-[4-[[1-[(5-methyl-2-furanyl)methyl]-1H-benzimidazol-2-yl]-amino]-1-piperidinyl]ethyl]-5H-tetrazol-5-one ethanedioate(1:2)]",0.04
14,Cc1ccc(Cn2c(NC3CCN(CC(O)COc4ccccc4)CC3)nc3cccnc32)o1 (stereo not shown) [Compound 26],0.04
15,CCc1ccc(Cn2c(NC3CCN(C)CC3)nc3cccnc32)o1 [Compound 29],0.04
16,Cc1occc1Cn1c(NC2CCN(C)CC2)nc2cccnc21 [Compound 36],0.04
17,CCCCN1CCC(Nc2nc3cccnc3n2Cc2ccc(C)o2)CC1 [Compound 37],0.02
18,Cc1ccc(Cn2c(NC3CCN(CCCn4c(=O)[nH]c5ccccc54)CC3)nc3cccnc32)o1 [Compound 38],0.02
19,CCCCCCN1CCC(Nc2nc3cccnc3n2Cc2ccc(C)o2)CC1 [Compound 39],0.04
20,"CNC(=O)NCCN1CCC(Nc2nc3ccccc3n2Cc2ccc(C)o2)CC1 [Compound 40, N-methyl-N'-[2-[4-[[1-[(5-methyl-2-furanyl)methyl]-1H-benzimidazol-2-yl]amino]-1-piperidinyl]ethyl]urea]",0.02
21,CC(=O)CCN1CCC(Nc2nc3cccnc3n2Cc2ccc(C)o2)CC1 [Compound 41],0.01
22,CCCCCN1CCC(Nc2nc3cccnc3n2Cc2ccc(C)o2)CC1 [Compound 42],0.04
23,Cc1ccc(Cn2c(NC3CCN(CCCC(=O)c4ccc(F)cc4)CC3)nc3cccnc32)o1 [Compound 46],0.04
24,Cc1occc1Cn1c(NC2CCN(CCn3c(=O)[nH]c4ccccc43)CC2)nc2cccnc21 [Compound 53],0.04
25,Cc1ccoc1Cn1c(NC2CCN(C)CC2)nc2cccnc21 [Compound 56],0.04
26,Cc1coc(Cn2c(NC3CCN(C)CC3)nc3cccnc32)c1 [Compound 62],0.005
27,Cc1coc(Cn2c(NC3CCN(CCn4c(=O)[nH]c5ccccc54)CC3)nc3cccnc32)c1 [Compound 63],0.04
28,COc1ccc(CCN2CCC(Nc3nc4cccnc4n3Cc3cc(C)co3)CC2)cc1 [Compound 64],0.04
